# According to the NIST ThermoML archive (doi:10.1021/je7003066):
# ± gives the expanded uncertainty stated by the source.
# Tests used:
# [1] = molar heat capacity at constant pressure; settings: 101.33 kPa, Liquid, Small sample (50 mg) DSC
# [2] = 101.33 kPa, Liquid; for viscosity: Capillary tube (Ostwald / Ubbelohde) method
# [3] = refractive index (Na D-line) (dimensionless); settings: 101.33 kPa, Liquid, Standard Abbe refractometry
structure (smiles),measurement,setting,value
CC1CCCO1 (configuration not stated) [2-methyltetrahydrofuran],molar heat capacity at constant pressure,[1]; 293.15 K,155.3 ± 3.1 J/K/mol
same,molar heat capacity at constant pressure,[1]; 303.15 K,158.6 ± 3.2 J/K/mol
same,molar heat capacity at constant pressure,[1]; 313.15 K,162.1 ± 3.2 J/K/mol
same,mass density,[2]; 293.15 K,852.95 ± 0.68 kg/m3
same,viscosity,[2]; 293.15 K,0.492 ± 0.04 mPa·s
same,mass density,[2]; 303.15 K,842.8 ± 0.7 kg/m3
same,viscosity,[2]; 303.15 K,0.443 ± 0.04 mPa·s
same,mass density,[2]; 313.15 K,832.38 ± 0.72 kg/m3
same,viscosity,[2]; 313.15 K,0.416 ± 0.04 mPa·s
same,refractive index,[3]; 293.15 K,1.4085 ± 0.0008
same,refractive index,[3]; 303.15 K,1.4017 ± 0.0007
same,refractive index,[3]; 313.15 K,1.3959 ± 0.0007
